What all share (type): biochemical
The target of experiment [1] is A/M2 PR8/34 (Influenza A virus, UniProt P06821).
Experiment [2] has as its target A/M2 Udorn72 with a mutation (S31N) (Influenza A virus, UniProt P0DOF5, S31N).
The target of experiment [3] is A/M2 PR8/34 (V27S31) (Influenza A virus, UniProt P06821, A27V/N31S).
The target of experiment [4] is B/M2 Lee40 (Influenza B virus, UniProt P03493).

The structures appear in SMILES notation. Entries after “also recorded” stand apart in the source; their conditions may differ.

Turning to `NC12CC3CC(CC(C3)C1)C2` [amantadine], the results for the “H+ transport across VLP membranes (fluorescence)” value in experiment [1], in experiment [2] and in experiment [4] were “exerted no effect; also recorded: in the presence or absence of amantadine”, “resistant to inhibition” and “exerted no effect”, respectively. Besides, the “H+ translocation across VLP membranes (fluorescence)” value in experiment [3] is reported as “in the absence, but not in the presence of 100 μM of the drug”.

In the case of `CC(N)C12CC3CC(CC(C3)C1)C2` (stereo not drawn) [rimantadine], the “H+ transport across VLP membranes (fluorescence)” value in experiment [1] and in experiment [4] was “exerted no effect” in each case.

(Values after patent US8377691B2 (priority 2006, dated 2013).)
